Columns and labels:
Test in all cases: KINOMEscan kinase binding assay
[1] = test system: LTK; settings: at 1 μM
Procedure: (§1) Kinase binding assays were performed at Eurofins/DiscoveRx using the general KINOMEscan Protocol (Fabian, M. A. et al., “A small molecule-kinase interaction map for clinical kinase inhibitors,” Nat. Biotechnol. 2005, 23(3):329-36). For most assays, kinase-tagged T7 phage strains were prepared in an E. coli host derived from the BL21 strain. E. coli were grown to log-phase and infected with T7 phage and incubated with shaking at 32° C. until lysis. The lysates were centrifuged and filtered to remove cell debris. The remaining kinases were produced in HEK-293 cells and subsequently tagged with DNA for qPCR detection. Streptavidin-coated magnetic beads were treated with biotinylated small molecule ligands for 30 minutes at room temperature to generate affinity resins for kinase assays. The liganded beads were blocked with excess biotin and washed with blocking buffer (SeaBlock (Pierce), 1% BSA, 0.05% Tween 20, 1 mM DTT) to remove unbound ligand and to reduce nonspecific binding. Binding reactions were assembled by combining kinases, liganded affinity beads, and test compounds in 1× binding buffer (20% SeaBlock, 0.17×PBS, 0.05% Tween 20, 6 mM DTT). All reactions were performed in polystyrene 96-well plates in a final volume of 0.135 mL. The assay plates were incubated at room temperature with shaking for 1 hour and the affinity beads were washed with wash buffer (1×PBS, 0.05% Tween 20). The beads were then re-suspended in elution buffer (1×PBS, 0.05% Tween 20, 0.5 μM non-biotinylated affinity ligand) and incubated at room temperature with shaking for 30 minutes. The kinase concentration in the eluates was measured by qPCR. Results for compounds tested in this assay at a given concentration are reported as “% Ctrl”, where lower numbers indicate stronger binding in the matrix. % Ctrl was calculated as (test compound signal-positive control signal)/(negative control signal-positive control signal)×100. Dissociation constants (Kds) for test compound-kinase interactions were calculated by measuring the amount of kinase captured on the solid support as a function of the test compound concentration.

[2] = test system: BMX; settings: at 1 μM
Procedure: as §1

[3] = test system: EGFR(G719C); settings: at 1 μM
Procedure: as §1

[4] = test system: FLT3; settings: at 1 μM
Procedure: as §1

[5] = test system: TNK1; settings: at 1 μM
Procedure: as §1

[6] = test system: SRMS; settings: at 1 μM
Procedure: as §1

[7] = test system: ERBB2; settings: at 1 μM
Procedure: as §1

[8] = test system: EGFR(T790M); settings: at 1 μM
Procedure: as §1

[9] = test system: EPHA4; settings: at 1 μM
Procedure: as §1

[10] = test system: TRKC; settings: at 1 μM
Procedure: as §1

[11] = test system: ABL1-nonphosphorylated; settings: at 1 μM
Procedure: as §1

[12] = test system: FLT3(K663Q); settings: at 1 μM
Procedure: as §1

[13] = test system: FLT3(N841I); settings: at 1 μM
Procedure: as §1

[14] = test system: JAK2(JH1domain-catalytic); settings: for % Ctrl: JAK2(JH1domain-catalytic), at 1 μM; for Kd: read-out: JAK2(JH1 domain-catalytic) Kd
Procedure: as §1

[15] = test system: FGFR1; settings: at 1 μM
Procedure: as §1

[16] = test system: CSF1R; settings: at 1 μM
Procedure: as §1

[17] = test system: KIT(A829P); settings: at 1 μM
Procedure: as §1

[18] = test system: FLT3(D835H); settings: at 1 μM
Procedure: as §1

[19] = test system: EGFR(L747-S752del, P753S); settings: at 1 μM
Procedure: as §1

[20] = test system: ERBB4; settings: at 1 μM
Procedure: as §1

[21] = test system: IGF1R; settings: at 1 μM
Procedure: as §1

[22] = test system: EPHB2; settings: at 1 μM
Procedure: as §1

[23] = test system: ZAP70; settings: at 1 μM
Procedure: as §1

[24] = test system: ABL1(F3171)-phosphorylated; settings: at 1 μM
Procedure: as §1

[25] = test system: RET(V804M); settings: at 1 μM
Procedure: as §1

[26] = test system: FLT1; settings: at 1 μM
Procedure: as §1

[27] = test system: KIT(V559D); settings: at 1 μM
Procedure: as §1

[28] = test system: EPHA3; settings: at 1 μM
Procedure: as §1

[29] = test system: EGFR(G719S); settings: at 1 μM
Procedure: as §1

[30] = test system: FLT3(D835V); settings: at 1 μM
Procedure: as §1

[31] = test system: LCK; settings: at 1 μM
Procedure: as §1

[32] = test system: INSRR; settings: at 1 μM
Procedure: as §1

[33] = test system: EPHA6; settings: at 1 μM
Procedure: as §1

[34] = test system: EPHA2; settings: at 1 μM
Procedure: as §1

[35] = test system: BTK; settings: at 1 μM
Procedure: as §1

[36] = test system: PYK2; settings: at 1 μM
Procedure: as §1

[37] = test system: LYN; settings: at 1 μM
Procedure: as §1

[38] = test system: JAK3(JH1domain-catalytic); settings: for % Ctrl: JAK3(JH1domain-catalytic), at 1 μM; for Kd: read-out: JAK3(JH1 domain-catalytic) Kd
Procedure: as §1

[39] = test system: EPHA1; settings: at 1 μM
Procedure: as §1

[40] = test system: FAK; settings: at 1 μM
Procedure: as §1

Cc1cc2c([nH]1)/C=C1\C(=O)Nc3c(Cl)cc(cc31)-c1cn(C)nc1COC[C@@H](C)N(C)C2=O [Cpd. 5, [3a(4)Z,10R]-20-chloro-6,9,10,15-tetramethyl-10,11,13,15-tetrahydro-2H-1,17-(ethanediylidene)pyrazolo[4,3-m]dipyrrolo[3,2-f:3′,4′-i][1,4]oxazacyclopentadecine-3,8(5H,9H)-dione]
% Ctrl [1]: 93%
% Ctrl [2]: 100%
% Ctrl [3]: 100%
% Ctrl [4]: 94%
% Ctrl [5]: 91%
% Ctrl [6]: 61%
% Ctrl [7]: 100%
% Ctrl [8]: 80%
% Ctrl [9]: 93%
% Ctrl [10]: 98%
% Ctrl [11]: 87%
% Ctrl [12]: 87%
% Ctrl [13]: 86%
% Ctrl [14]: 89%
Kd [14]: > 10 µM
% Ctrl [15]: 84%
% Ctrl [16]: 96%
% Ctrl [17]: 84%
% Ctrl [18]: 79%
% Ctrl [19]: 86%
% Ctrl [20]: 97%
% Ctrl [21]: 98%
% Ctrl [22]: 90%
% Ctrl [23]: 63%
% Ctrl [24]: 97%
% Ctrl [25]: 90%
% Ctrl [26]: 93%
% Ctrl [27]: 96%
% Ctrl [28]: 79%
% Ctrl [29]: 98%
% Ctrl [30]: 89%
% Ctrl [31]: 94%
% Ctrl [32]: 99%
% Ctrl [33]: 91%
% Ctrl [34]: 100%
% Ctrl [35]: 68%
% Ctrl [36]: 83%
% Ctrl [37]: 91%
% Ctrl [38]: 79%
Kd [38]: > 10 µM
% Ctrl [39]: 82%
% Ctrl [40]: 96%

Cc1cc2c([nH]1)/C=C1\C(=O)Nc3c(Cl)cc(cc31)-c1cn(C)nc1COC[C@@H](C)NC2=O [Cpd. 3, [3a(4)Z,10R]-20-chloro-6,10,15-trimethyl-10,11,13,15-tetrahydro-2H-1,17-(ethanediylidene)pyrazolo[4,3-m]dipyrrolo[3,2-f:3′,4′-i][1,4]oxazacyclopentadecine-3,8(5H,9H)-dione]
% Ctrl [1]: 100%
% Ctrl [2]: 91%
% Ctrl [3]: 100%
% Ctrl [4]: 57%
% Ctrl [5]: 94%
% Ctrl [6]: 69%
% Ctrl [7]: 100%
% Ctrl [8]: 87%
% Ctrl [9]: 92%
% Ctrl [10]: 100%
% Ctrl [11]: 92%
% Ctrl [12]: 100%
% Ctrl [13]: 90%
% Ctrl [14]: 93%
Kd [14]: > 10 µM
% Ctrl [15]: 80%
% Ctrl [16]: 100%
% Ctrl [17]: 99%
% Ctrl [18]: 100%
% Ctrl [19]: 90%
% Ctrl [20]: 96%
% Ctrl [21]: 95%
% Ctrl [22]: 99%
% Ctrl [23]: 55%
% Ctrl [24]: 97%
% Ctrl [25]: 100%
% Ctrl [26]: 92%
% Ctrl [27]: 100%
% Ctrl [28]: 75%
% Ctrl [29]: 100%
% Ctrl [30]: 100%
% Ctrl [31]: 87%
% Ctrl [32]: 99%
% Ctrl [33]: 93%
% Ctrl [34]: 93%
% Ctrl [35]: 86%
% Ctrl [36]: 94%
% Ctrl [37]: 90%
% Ctrl [38]: 70%
Kd [38]: 7.7 µM
% Ctrl [39]: 85%
% Ctrl [40]: 100%

Cc1cc2c([nH]1)/C=C1\C(=O)Nc3ccc(cc31)-c1c(nn(C)c1C)COCCN(C)C2=O [Cpd. 2, [3a(4)Z]-6,9,15,16-tetramethyl-10,11,13,15-tetrahydro-2H-1,17-(ethanediylidene)pyrazolo[4,3-m]dipyrrolo[3,2-f:3′,4′-i][1,4]oxazacyclopentadecine-3,8(5H,9H)-dione]
% Ctrl [1]: 100%
% Ctrl [2]: 95%
% Ctrl [3]: 80%
% Ctrl [4]: 67%
% Ctrl [5]: 92%
% Ctrl [6]: 90%
% Ctrl [7]: 100%
% Ctrl [8]: 85%
% Ctrl [9]: 100%
% Ctrl [10]: 22%
% Ctrl [11]: 55%
% Ctrl [12]: 47%
% Ctrl [13]: 24%
% Ctrl [14]: 91%
Kd [14]: 2.3 µM
% Ctrl [15]: 100%
% Ctrl [16]: 82%
% Ctrl [17]: 92%
% Ctrl [18]: 31%
% Ctrl [19]: 100%
% Ctrl [20]: 67%
% Ctrl [21]: 88%
% Ctrl [22]: 97%
% Ctrl [23]: 96%
% Ctrl [24]: 98%
% Ctrl [25]: 77%
% Ctrl [26]: 79%
% Ctrl [27]: 98%
% Ctrl [28]: 99%
% Ctrl [29]: 77%
% Ctrl [30]: 7.9%
% Ctrl [31]: 100%
% Ctrl [32]: 100%
% Ctrl [33]: 100%
% Ctrl [34]: 85%
% Ctrl [35]: 100%
% Ctrl [36]: 100%
% Ctrl [37]: 74%
% Ctrl [38]: 49%
Kd [38]: 0.51 µM
% Ctrl [39]: 100%
% Ctrl [40]: 96%

From patent US20250074920A1, “MACROCYCLIC COMPOUNDS AND USE AS KINASE INHIBITORS” (BLOSSOMHILL THERAPEUTICS, INC., priority 2022, published 2025)
